# Test results from the Kinase Knowledgebase extract (Sharma et al. 2016).
# Columns and labels:
# [1] = molecular target: PIK3CG (human) (UniProt P48736); test: Assessment of PIK3CG Kinase Activity
# [2] = molecular target: PIK3CA (human) (UniProt P42336); test: Assessment of PIK3CA Kinase Activity
# Sequence of PIK3CA (human) (P42336 whole entry, looked up): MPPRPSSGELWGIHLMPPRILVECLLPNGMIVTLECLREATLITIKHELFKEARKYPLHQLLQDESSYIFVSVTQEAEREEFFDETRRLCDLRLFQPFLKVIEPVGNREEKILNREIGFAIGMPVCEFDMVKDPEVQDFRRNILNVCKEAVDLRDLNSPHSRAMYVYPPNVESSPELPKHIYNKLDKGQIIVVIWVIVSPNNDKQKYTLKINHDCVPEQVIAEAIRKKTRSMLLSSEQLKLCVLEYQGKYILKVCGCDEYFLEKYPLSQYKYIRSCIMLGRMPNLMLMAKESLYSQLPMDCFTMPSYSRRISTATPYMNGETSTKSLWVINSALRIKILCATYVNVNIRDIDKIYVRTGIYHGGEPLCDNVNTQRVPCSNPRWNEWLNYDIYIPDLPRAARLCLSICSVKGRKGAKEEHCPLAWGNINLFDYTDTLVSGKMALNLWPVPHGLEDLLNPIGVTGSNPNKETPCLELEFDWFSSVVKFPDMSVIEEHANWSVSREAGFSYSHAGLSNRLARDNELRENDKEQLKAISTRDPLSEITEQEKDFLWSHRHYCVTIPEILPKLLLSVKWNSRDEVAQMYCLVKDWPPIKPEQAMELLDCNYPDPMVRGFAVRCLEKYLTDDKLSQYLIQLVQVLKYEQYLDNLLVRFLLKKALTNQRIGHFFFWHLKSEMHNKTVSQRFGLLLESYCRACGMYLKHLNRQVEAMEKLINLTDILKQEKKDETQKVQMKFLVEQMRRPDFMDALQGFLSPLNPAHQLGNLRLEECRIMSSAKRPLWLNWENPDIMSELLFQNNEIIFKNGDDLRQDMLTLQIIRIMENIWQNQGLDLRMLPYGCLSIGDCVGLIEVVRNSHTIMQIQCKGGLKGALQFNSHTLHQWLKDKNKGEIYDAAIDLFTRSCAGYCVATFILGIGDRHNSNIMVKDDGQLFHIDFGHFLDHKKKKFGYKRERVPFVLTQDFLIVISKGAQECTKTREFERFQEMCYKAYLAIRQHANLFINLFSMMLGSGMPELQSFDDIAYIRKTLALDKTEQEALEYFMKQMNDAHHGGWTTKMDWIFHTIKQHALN
# Sequence of PIK3CG (human) (P48736 whole entry, looked up): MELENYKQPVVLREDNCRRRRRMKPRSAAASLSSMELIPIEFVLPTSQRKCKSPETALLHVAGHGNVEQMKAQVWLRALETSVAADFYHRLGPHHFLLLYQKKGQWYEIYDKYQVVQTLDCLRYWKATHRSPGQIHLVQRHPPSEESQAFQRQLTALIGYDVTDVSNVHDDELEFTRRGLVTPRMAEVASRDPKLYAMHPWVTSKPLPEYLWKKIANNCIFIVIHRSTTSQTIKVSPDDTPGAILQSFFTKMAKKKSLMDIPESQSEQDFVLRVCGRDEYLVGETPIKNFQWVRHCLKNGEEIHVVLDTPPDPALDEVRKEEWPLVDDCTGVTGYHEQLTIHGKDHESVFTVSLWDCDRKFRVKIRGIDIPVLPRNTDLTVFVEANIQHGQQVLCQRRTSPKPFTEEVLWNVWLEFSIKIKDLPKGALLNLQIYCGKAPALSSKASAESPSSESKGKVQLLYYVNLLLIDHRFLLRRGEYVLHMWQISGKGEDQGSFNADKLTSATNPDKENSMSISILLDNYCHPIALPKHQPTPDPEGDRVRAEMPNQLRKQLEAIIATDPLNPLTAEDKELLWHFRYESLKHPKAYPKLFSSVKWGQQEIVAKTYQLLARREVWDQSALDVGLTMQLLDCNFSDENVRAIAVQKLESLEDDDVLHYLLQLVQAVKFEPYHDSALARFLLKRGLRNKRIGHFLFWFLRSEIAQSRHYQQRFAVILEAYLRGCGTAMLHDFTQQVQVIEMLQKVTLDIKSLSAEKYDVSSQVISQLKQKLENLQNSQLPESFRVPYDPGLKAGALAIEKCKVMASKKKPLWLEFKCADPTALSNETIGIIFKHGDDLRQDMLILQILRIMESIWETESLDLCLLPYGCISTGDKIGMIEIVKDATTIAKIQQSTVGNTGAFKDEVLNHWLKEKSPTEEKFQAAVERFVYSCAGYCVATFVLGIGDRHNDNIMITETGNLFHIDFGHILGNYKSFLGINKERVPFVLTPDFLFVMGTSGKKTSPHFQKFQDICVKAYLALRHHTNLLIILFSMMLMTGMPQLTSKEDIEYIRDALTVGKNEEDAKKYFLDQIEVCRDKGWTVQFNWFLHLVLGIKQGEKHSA
SMILES,Ki [1] [nM],Ki [2] [nM]
COc1cncc(-c2ccc3nc(Nc4nncs4)sc3c2)c1,< 100,–
CCN(CC)C(=O)c1cccc(Nc2nc3ccc(-c4cncc(OC)c4)cc3s2)c1,< 100,–
FC(F)(F)c1cncc(-c2ccc3nc(Nc4cccnc4)sc3n2)c1,< 100,–
COc1cc(-c2ccc3nc(Nc4cccnc4)sc3n2)cnc1OC,< 100,< 100
COc1cncc(-c2ccc3nc(Nc4cccnc4)sc3n2)c1,< 100,–
CCn1cc(Nc2nc3ccc(-c4cncc(C(F)(F)F)c4)cc3s2)cn1,–,< 100
CCc1ncc(-c2ccc3nc(Nc4cnccn4)sc3c2)cc1OC,< 100,–
COc1cc(-c2ccc3nc(Nc4cnccn4)sc3c2)cnc1N,< 100,< 100
CCOc1ncc(-c2ccc3nc(Nc4cccnc4)sc3n2)cc1OC,< 100,< 100
COc1cncc(-c2ccc3nc(Nc4ccccn4)sc3c2)c1,< 100,–
CNC(=O)Cc1ccc(Nc2nc3ccc(-c4cncc(OC)c4)cc3s2)cc1,< 100,–
FC(F)(F)c1cncc(-c2ccc3nc(Nc4cnn(CC5CCCO5)c4)sc3c2)c1 (centres undefined),< 100,< 100
COc1cncc(-c2ccc3nc(Nc4ccncn4)sc3c2)c1,< 100,< 100
COc1cc(-c2ccc3nc(Nc4cccnc4)sc3c2)cnc1OC,< 100,< 100
COc1cc(-c2ccc3nc(Nc4cncc(C)n4)sc3c2)cnc1OC,< 100,< 100
CCOc1cc(-c2ccc3nc(Nc4cnccn4)sc3c2)cnc1OCC,< 100,< 100
COc1cncc(-c2ccc3nc(Nc4cccnc4)sc3c2)c1,< 100,–
COCCn1cc(Nc2nc3ccc(-c4cncc(C(F)(F)F)c4)cc3s2)cn1,< 100,< 100
COc1cncc(-c2ccc3nc(Nc4ccc(N)cc4)sc3c2)c1,< 100,–
COc1cc(-c2ccc3nc(Nc4cc[nH]n4)sc3c2)cnc1OC,< 100,< 100
COc1cncc(-c2ccc3nc(Nc4cnccn4)sc3c2)c1,< 100,< 100
COc1cncc(-c2ccc3nc(Nc4cc[nH]n4)sc3c2)c1,< 100,< 100
COc1cncc(-c2ccc3nc(Nc4cccc(S(C)(=O)=O)c4)sc3c2)c1,< 100,–

SMILES,Ki [1] [nM],Ki [2] [nM]
CCOc1cncc(Nc2nc3ccc(-c4cnc(OC)c(OC)c4)cc3s2)n1,< 100,< 100
COc1cc(-c2ccc3nc(Nc4cnccn4)sc3c2)cnc1OC,< 100,< 100
COc1cc(-c2ccc3nc(Nc4cnccn4)sc3n2)cnc1OC,< 100,–
CCOc1cc(-c2ccc3nc(Nc4cccnc4)sc3n2)cnc1OCC,< 100,–
COc1cncc(-c2ccc3nc(Nc4ccc(N(C)C(C)=O)cc4)sc3c2)c1,< 100,–
COc1cc(-c2ccc3nc(Nc4cnccn4)sc3c2)cnc1C,< 100,< 100
COc1cc(-c2ccc3nc(Nc4nnc(C)s4)sc3c2)cnc1OC,< 100,< 100
COc1ncc(-c2ccc3nc(Nc4cccnc4)sc3n2)cc1OC(C)C,< 100,< 100
FC(F)(F)c1cncc(-c2ccc3nc(Nc4cnccn4)sc3c2)c1,–,< 100
CCOc1ncc(-c2ccc3nc(Nc4cnccn4)sc3c2)cc1OC,< 100,< 100
COc1cncc(-c2ccc3nc(Nc4ccn(C)n4)sc3c2)c1,< 100,< 100
COc1cc(-c2ccc3nc(Nc4ccccn4)sc3c2)cnc1OC,< 100,< 100
COc1ncc(-c2ccc3nc(Nc4cnccn4)sc3c2)cc1OC(C)C,< 100,< 100
COc1cncc(-c2ccc3nc(Nc4cccc(NC(C)=O)c4)sc3c2)c1,< 100,–
CNC(=O)Cn1cc(Nc2nc3ccc(-c4cncc(C(F)(F)F)c4)cc3s2)cn1,< 100,< 100
COc1cncc(Nc2nc3ccc(-c4cnc(OC)c(OC)c4)cc3s2)n1,< 100,< 100
Cc1ccc(Nc2nc3ccc(-c4cncc(C(F)(F)F)c4)cc3s2)nn1,< 100,–
COc1cc(-c2ccc3nc(Nc4cccc(C)n4)sc3c2)cnc1OC,< 100,< 100
COc1cc(-c2ccc3nc(Nc4ncc(C)s4)sc3c2)cnc1OC,< 100,< 100
CCOc1cc(-c2ccc3nc(Nc4cnccn4)sc3c2)cnc1OC,< 100,< 100
Cn1cc(Nc2nc3ccc(-c4cncc(C(F)(F)F)c4)cc3s2)cn1,< 100,–
COc1cncc(-c2ccc3nc(Nc4cccc(CO)c4)sc3c2)c1,–,< 100
COc1cc(-c2ccc3nc(Nc4ccncn4)sc3c2)cnc1OC,< 100,< 100

SMILES,Ki [1] [nM],Ki [2] [nM]
COc1cncc(-c2ccc3nc(Nc4ccc5nc[nH]c5c4)sc3c2)c1,< 100,< 100
COc1cncc(-c2ccc3nc(Nc4ccc(Cl)nn4)sc3c2)c1,< 100,–
CCOc1cc(-c2ccc3nc(Nc4cnccn4)sc3n2)cnc1OCC,< 100,< 100
COc1cncc(-c2ccc3nc(Nc4nccs4)sc3c2)c1,< 100,< 100
COc1cncc(-c2ccc3nc(Nc4ccc(C)nn4)sc3c2)c1,< 100,< 100
CCCn1ccc(Nc2nc3ccc(-c4cnc(OC)c(OC)c4)cc3s2)n1,< 100,< 100
CCN(CC)C(=O)c1cccc(Nc2nc3ccc(-c4cncc(OC)c4)cc3s2)n1,–,< 100
COc1cncc(-c2ccc3nc(Nc4cncc(C)n4)sc3c2)c1,< 100,< 100
COc1cncc(-c2ccc3nc(Nc4ccc5c(c4)N(C(C)=O)CC5)sc3c2)c1,< 100,–
COc1cc(-c2ccc3nc(Nc4ccn(C)n4)sc3c2)cnc1OC,< 100,< 100
COc1cncc(-c2ccc3nc(Nc4ccc(CC(N)=O)cc4)sc3c2)c1,< 100,–
COc1ncc(-c2ccc3nc(Nc4cnccn4)sc3n2)cc1OC(C)C,< 100,< 100
FC(F)(F)c1cncc(-c2ccc3nc(Nc4ccncn4)sc3c2)c1,< 100,< 100
CCOc1ncc(-c2ccc3nc(Nc4cnccn4)sc3n2)cc1OC,< 100,< 100
CCCCNS(=O)(=O)c1cccc(Nc2nc3ccc(-c4cncc(OC)c4)cc3s2)c1,< 100,–
COc1cncc(-c2ccc3nc(Nc4cccc(C)n4)sc3c2)c1,< 100,–
COc1cccc(Nc2nc3ccc(-c4cnc(OC)c(OC)c4)cc3s2)n1,< 100,< 100
COc1cc(-c2ccc3nc(Nc4nccc(C)n4)sc3c2)cnc1OC,< 100,< 100
COc1cncc(-c2ccc3nc(Nc4nc(C)cs4)sc3c2)c1,< 100,–
COc1cc(-c2ccc3nc(Nc4ncccn4)sc3c2)cnc1OC,< 100,< 100
Nc1ccc(Nc2nc3ccc(-c4cncc(C(F)(F)F)c4)cc3s2)cn1,< 100,–
O=C(O)Cn1cc(Nc2nc3ccc(-c4cncc(C(F)(F)F)c4)cc3s2)cn1,< 100,< 100
